Article PMC10218498, “Exploring BenzylethoxyAryl Urea Scaffolds for Multitarget Immunomodulation Therapies” (International Journal of Molecular Sciences, 2023)

Experiments:
CD11b = CD11b relative quantification by flow cytometry in co-cultured THP-1; type: cell-based, human; settings: 20 μM; for % CD11b: related to non-treated cells; for reduction of CD11b: excess of cancer cells (2:1)
Method: (§1) Reducing the expression of CD11b has become a promising target for immune modulation in anti-cancer therapies. For that reason, we decided to study the effect of our compounds on CD11b in THP-1 cells co-cultured with HT-29. We also determine the relative amount of CD80, a common surface marker for monocytes. This study was performed on the collected cell culture from each well and gating living THP-1 cell population.
(§2) To study the effect of the compounds on every biological target in co-cultured THP-1 immune cells with cancer cell line HT-29, the compounds were incubated for 24 h/48 h as described before.
(§3) To detect membrane CD11b and CD80, after the cell incubation, suspended THP-1 was collected from the cell culture of each sample well, fixed with 4% in PBS paraformaldehyde, and stained with FITC Mouse monoclonal Anti-Human CD80 (Sigma-Aldrich, S. Louis, MO, USA, SAB4700142) and Alexa Fluor® 647 Rabbit monoclonal Anti-CD11b (Merck, S. Louis, MO, USA, #MABF366).

Jurkat T cells = assay: MTT cell proliferation assay, Jurkat T cells; type: cell-based; settings: Homo sapiens, 48 h of treatment
Method: (§4) This assay allowed us to establish the corresponding IC50 values (expressed as the concentration, in μM, at which 50% of cell viability is achieved), shown in Table 1.
(§5) In 96-well plates, 5 × 10^3 (HT-29, MCF-7, A549, HMEC-1, Jurkat, and HEK-293) cells per well were incubated with serial dilutions of the tested compounds in a total volume of 100 μL of their respective growth media. The 3-(4,5-dimethylthiazol-2-yl)-2,5-diphenyltetrazolium bromide (MTT; Sigma Chemical Co.) dye reduction assay in 96-well microplates was used. After 2 days of incubation (37 °C, 5% CO2 in a humid atmosphere), 10 μL of MTT (5 mg/mL in phosphate-buffered saline, PBS) was added to each well, and the plate was incubated for a further 3 h (37 °C). After that, the supernatant was discarded and replaced by 100 µL of DMSO to dissolve formazan crystals. The absorbance was then read at 550 nm by spectrophotometry. For all concentrations of compound, cell viability was expressed as the percentage of the ratio between the mean absorbance of treated cells and the mean absorbance of untreated cells. Three independent experiments were performed, and the IC50 values (i.e., concentration half inhibiting cell proliferation) were graphically determined using GraphPad Prism 4 software.

THP-1 cells = assay: Immune cell viability in monoculture and co-cultures with HT-29 by flow cytometry; type: cell-based, human; settings: for THP-1 living cells compared to control (%), Monocult. THP-1: THP-1 monoculture, 20 μM; for THP-1 living cells compared to control (%), 1:5 HT-29/THP-1, 24 h / THP-1 living cells compared to control (%), 1:5 HT-29/THP-1, 48 h: co-culture 1:5 HT-29/THP-1, 20 μM; for THP-1 living cells compared to control (%), 2:1 HT-29/THP-1, 24 h / THP-1 living cells compared to control (%), 2:1 HT-29/THP-1, 48 h: co-culture 2:1 HT-29/THP-1, 20 μM
Method: From the previous study, we also determined the effect of the selected compounds on the human monocyte cells THP-1 in the described co-cultures. We also assessed the effect of the compounds on the cell viability of monocultured THP-1.
On the other hand, to study the effect of the compounds on the cell viability in co-culture with THP-1 cells, 10^5 or 2 × 10^5 of the HT-29 cells line per well were seeded and incubated for 24 h, then the medium was changed by one cell culture medium supplemented with IFN-γ (10 ng/mL; human, Invitrogen®, Waltham, MA, USA) and containing 5 × 10^5 or 105, respectively, of THP-1 per well and the corresponding compound at 20 μM or DMSO for the positive control. After 24 h/48 h of incubation, supernatants were collected to determine THP-1 living cells. Additionally, stain cancer cells were collected with trypsin. Both types of suspension cells were fixed with 4% in PBS paraformaldehyde and counted by flow cytometry.

CD80 = CD80 relative quantification by flow cytometry in co-cultured THP-1; type: cell-based, human; settings: 20 μM, related to non-treated cells
Method: as §1, §2, §3

[1] = tested on: HEK-293 (human embryonic kidney cells); assay: MTT cell proliferation assay, HEK-293; type: cell-based; settings: HEK293, 48 h of treatment
Method: as §4, §5

LCK = assay: Immunoblotting of OT-1 CTL signaling proteins: LCK; type: cell-based, mice; settings: OT-1, 20 μM, 24 h
Text: (§6) We next studied the effect of our compounds on the signaling cascade downstream of the TCR. […] However, both the expression and phosphorylation of LCK were increased in response to all compounds. The effects on ZAP70 and LAT were more complex, with opposing effects on total protein expression versus phosphorylation. Thus, all compounds modulated signaling downstream of the TCR in a manner that is likely to impact T-cell activation and activity.
(§7) CD8+ cells were obtained from the inguinal, axillary, brachial, and mesenteric lymph nodes previously collected from OT-1 mice. Lymph node cells were isolated by mashing through a […] cell strainer. Cells were resuspended in IMDM cell media at a concentration of 0.3 million cells/mL. N4 ovalbumin peptide was added at a concentration of 10 nM, and cells were incubated for 48 h at 5% CO2, 37 °C. On day 2 from recollection, cells were pelleted at 1300 rpm for 5 min and washed with PBS to remove N4 peptide. The cell pellet was resuspended in fresh IMDM media in a new flask in a 0.3 million cells/mL and supplemented with IL-2 at 20 ng/mL. After incubation for a further 48 h (day 4), cells were re-seeded in fresh IMDM media at a concentration of 0.3 million cells/mL supplemented with IL-2 at 20 ng/mL. Cells were cultured for a further 48 h prior to use on day 6 in functional assays.
(§8) To study the effect of the compounds in the signaling pathway of CTLs, the compound was incubated for 24 h at 20 μM. After this time, cells were collected and washed twice in PBS and lysed in radioimmunoprecipitation assay (RIPA) lysis buffer (50 mM tris-HCl at pH 7.4, 150 mM sodium chloride, 5 mM EGTA, 0.1% SDS, 1% NP-40, and 1% deoxycholate) supplemented with a protease and phosphatase inhibitor cocktail (mini complete ULTRA Protease tablet and phosSTOP tablet from Roche, Basel, Switzerland). Lysates were clarified by high-speed centrifugation (17,000 rpm for 15 min at 4 °C). Protein concentration was measured using a Micro BCA Protein Assay (Thermo Scientific, Waltham, MA, USA), and 10 μg to 30 μg of total protein were supplemented with 2X SDS sample buffer [tris (pH 6.8), 20% glycerol, 5% SDS, b-mercaptoethanol, and bromophenol blue) and boiled at 95 °C for 5 min. […] Bound Ab was detected by incubation with anti-rabbit and anti-mouse horseradish peroxidase secondary Ab (Cell Signaling Technology) and visualized using the Bio-Rad ChemiDoc MP Imaging System.

[2] = tested on: human microvessel endothelial cells (HMEC-1); assay: MTT cell proliferation assay, HMEC-1; type: cell-based; settings: 48 h of treatment
Method: as §4, §5

LAT = assay: Immunoblotting of OT-1 CTL signaling proteins: LAT; type: cell-based, mice; settings: OT-1, 20 μM, 24 h
Text: as §6, §7, §8

[3] = membrane THP-1, 1:5 HT-29/THP-1, 24 h
[4] = membrane THP-1, 2:1 HT-29/THP-1, 48 h

SMILES: Cc1c(COc2ccc(CN3CCCCC3C(=O)O)cc2Br)cccc1-c1ccccc1 (stereo not drawn) [BMS-8, reference compound]
- % CD11b (CD11b; [3]): 91 ± 1%
- % CD11b (CD11b; [4]): 80 ± 2%
- IC50 (Jurkat T cells): > 100 µM
- THP-1 living cells compared to control (%), Monocult. THP-1 (THP-1 cells): 99 ± 2%
- THP-1 living cells compared to control (%), 1:5 HT-29/THP-1, 24 h (THP-1 cells): 94 ± 0%
- THP-1 living cells compared to control (%), 1:5 HT-29/THP-1, 48 h (THP-1 cells): 93 ± 0%
- THP-1 living cells compared to control (%), 2:1 HT-29/THP-1, 24 h (THP-1 cells): 101 ± 9%
- THP-1 living cells compared to control (%), 2:1 HT-29/THP-1, 48 h (THP-1 cells): 97 ± 2%
- % CD80 (CD80; [3]): 101 ± 6%
- % CD80 (CD80; [4]): 101 ± 6%
- IC50 [1]: 60 ± 10 µM

SMILES: COc1ccc(COc2cccc(NC(=O)Nc3ccc(F)cc3)c2)cc1 [Compound 2]
- reduction of CD11b (CD11b; 48 h): about 20%
- % CD11b (CD11b; [3]): 92 ± 9%
- % CD11b (CD11b; [4]): 86 ± 3%
- IC50 (Jurkat T cells): > 100 µM
- LCK protein expression (Western blot quantification) (LCK): 176
- pY394-LCK protein expression (Western blot quantification) (LCK): 143
- pY505-LCK protein expression (Western blot quantification) (LCK): 140
- THP-1 living cells compared to control (%), Monocult. THP-1 (THP-1 cells): 111 ± 13%
- THP-1 living cells compared to control (%), 1:5 HT-29/THP-1, 24 h (THP-1 cells): 97 ± 7%
- THP-1 living cells compared to control (%), 1:5 HT-29/THP-1, 48 h (THP-1 cells): 105 ± 4%
- THP-1 living cells compared to control (%), 2:1 HT-29/THP-1, 24 h (THP-1 cells): 90 ± 28%
- THP-1 living cells compared to control (%), 2:1 HT-29/THP-1, 48 h (THP-1 cells): 105 ± 1%
- IC50 [2]: > 100 µM
- % CD80 (CD80; [3]): 99 ± 5%
- % CD80 (CD80; [4]): 105 ± 1%
- IC50 [1]: > 100 µM
- LAT protein expression (Western blot quantification) (LAT): 63

SMILES: COc1ccc(COc2cccc(NC(=O)Nc3ccc(Br)cc3)c2)cc1 [Compound 8]
- % CD11b (CD11b; [3]): 91 ± 4%
- % CD11b (CD11b; [4]): 93 ± 25%
- IC50 (Jurkat T cells): > 100 µM
- THP-1 living cells compared to control (%), Monocult. THP-1 (THP-1 cells): 98 ± 10%
- THP-1 living cells compared to control (%), 1:5 HT-29/THP-1, 24 h (THP-1 cells): 95 ± 12%
- THP-1 living cells compared to control (%), 1:5 HT-29/THP-1, 48 h (THP-1 cells): 100 ± 11%
- THP-1 living cells compared to control (%), 2:1 HT-29/THP-1, 24 h (THP-1 cells): 82 ± 14%
- THP-1 living cells compared to control (%), 2:1 HT-29/THP-1, 48 h (THP-1 cells): 97 ± 9%
- IC50 [2]: > 100 µM
- % CD80 (CD80; [3]): 95 ± 9%
- % CD80 (CD80; [4]): 103 ± 2%
- IC50 [1]: > 100 µM
- LAT protein expression (Western blot quantification) (LAT): 88
- pLAT protein expression (Western blot quantification) (LAT): 8

SMILES: COc1ccc(COc2cccc(NC(=O)Nc3ccc(OC)cc3)c2)cc1 [Compound 11]
- reduction of CD11b (CD11b; 48 h): about 20%
- % CD11b (CD11b; [3]): 95 ± 6%
- % CD11b (CD11b; [4]): 83 ± 5%
- IC50 (Jurkat T cells): > 100 µM
- LCK protein expression (Western blot quantification) (LCK): 168
- pY394-LCK protein expression (Western blot quantification) (LCK): 184
- pY505-LCK protein expression (Western blot quantification) (LCK): 157
- THP-1 living cells compared to control (%), Monocult. THP-1 (THP-1 cells): 103 ± 7%
- THP-1 living cells compared to control (%), 1:5 HT-29/THP-1, 24 h (THP-1 cells): 105 ± 4%
- THP-1 living cells compared to control (%), 1:5 HT-29/THP-1, 48 h (THP-1 cells): 94 ± 9%
- THP-1 living cells compared to control (%), 2:1 HT-29/THP-1, 24 h (THP-1 cells): 66 ± 24%
- THP-1 living cells compared to control (%), 2:1 HT-29/THP-1, 48 h (THP-1 cells): 102 ± 5%
- IC50 [2]: > 100 µM
- % CD80 (CD80; [3]): 102 ± 6%
- % CD80 (CD80; [4]): 103 ± 2%
- IC50 [1]: > 100 µM
- LAT protein expression (Western blot quantification) (LAT): 85
- pLAT protein expression (Western blot quantification) (LAT): 10

SMILES: COc1ccc(COc2cccc(NC(=O)Oc3ccccc3)c2)cc1 [Compound 14]
- reduction of CD11b (CD11b; 48 h): about 20%
- % CD11b (CD11b; [3]): 78 ± 11%
- % CD11b (CD11b; [4]): 81 ± 8%
- IC50 (Jurkat T cells): > 100 µM
- LCK protein expression (Western blot quantification) (LCK): 175
- pY394-LCK protein expression (Western blot quantification) (LCK): 130
- pY505-LCK protein expression (Western blot quantification) (LCK): 145
- THP-1 living cells compared to control (%), Monocult. THP-1 (THP-1 cells): 127 ± 12%
- THP-1 living cells compared to control (%), 1:5 HT-29/THP-1, 24 h (THP-1 cells): 93 ± 9%
- THP-1 living cells compared to control (%), 1:5 HT-29/THP-1, 48 h (THP-1 cells): 97 ± 9%
- THP-1 living cells compared to control (%), 2:1 HT-29/THP-1, 24 h (THP-1 cells): 81 ± 6%
- THP-1 living cells compared to control (%), 2:1 HT-29/THP-1, 48 h (THP-1 cells): 109 ± 2%
- IC50 [2]: > 100 µM
- % CD80 (CD80; [3]): 99 ± 6%
- % CD80 (CD80; [4]): 102 ± 1%
- IC50 [1]: > 100 µM
- LAT protein expression (Western blot quantification) (LAT): 103
- pLAT protein expression (Western blot quantification) (LAT): 21
